The values that follow come from publication doi:10.1101/2020.07.12.199869v2 (bioRxiv, 2020).

The test system of this assay is PGP/syndapin-2. The experiment in a line: Proximity ligation assay PGP/syndapin-2 in BECs. The format is cell-based, mouse. Particulars: polarised BECs, FAM-Aβ (1-40) 500 nM, 15 minutes; n = 60 images.

With “5-Fluorescein-amyloid-β protein (Aβ 1-40) [FAM-Aβ (1-40)]”, the “change in interaction of syndapin-2 with PGP (PLA dots)” value is on record as “no significant difference”.
